Test system: Corynebacterium A sp. NCIMB 40928
Test: In vitro model of fatty acid catabolism by axillary bacteria (culture viability and remaining fatty acid after 24 h)
Format: cell-based
Conditions: for Viability / Fatty acid utilisation: 24 h; for Viability: 35° C.; for Fatty acid utilisation: pentadecanoic acid 2.0 mg/ml
Experimental: This experiment uses the methods of WO 00/01353 to illustrate the much greater efficacy of 4-hydroxy-3-methoxybenzyl alcohol at inhibiting fatty acid catabolism by corynebacteria A, when compared with analogous materials previously disclosed in the aforementioned publication. Data illustrating the sub-lethal aspect of the inhibition are also presented.
An in vitro model system, reproducing fatty acid catabolism by axillary bacteria, was used. To each of several 250 ml baffled shake flasks was added 30 ml semi-synthetic medium (see below), supplemented with fatty acid substrate (2.0 mg/ml pentadecanoic acid) and non-fatty acid substrate (0.5 mg/ml glucose). To each flask (other than the control) was also added one of the indicated test materials, as a 10% (w/v) emulsion in semi-synthetic medium, supplemented with Gum Arabic (5.0 mg/ml). (Emulsions were formed by ultra-homogenisation at 24,000 rpm for about 1 min.) Each of the flasks was inoculated with fresh bacterial biomass (Corynebacterium A sp. NCIMB 40928), pre-grown for 24 h in TSBT (see below), to give starting optical densities (A590) of 1.0-2.0. Following inoculation, the flasks were incubated aerobically at 35° C., with agitation (130 rpm), for 24 hours. After this time, culture viability and remaining fatty acid were determined by methodology as described in […].
Composition of semi-synthetic medium in g/l: KH2PO4 (1.6), (NH4)2HPO4 (5.0), Na2SO4 (0.38), yeast nitrogen base (3.35) (Difco), yeast extract (0.5) (Beta Lab), Tween 80™ (0.2), Triton X-100™ (0.2), and MgCl2.6H2O (0.5).
Composition of TSBT (Tween-supplemented Tryptone soya broth) in g/l: Tryptone soya broth (30.0) (Merck), yeast extract (10.0) (Beta Lab), and Tween 80™ (1.0).
NCIMB 40928 in terms of culture viability and fatty acid utilisation. Various concentrations of active were investigated. It will be noted that for each of the Examples, culture viability was not substantially affected.

| SMILES | Viability (active conc. 0.1 g/l) [log10CFU/ml] | Fatty acid utilisation (active conc. 0.1 g/l) [%] | Viability (active conc. 0.25 g/l) [log10CFU/ml] | Fatty acid utilisation (active conc. 0.25 g/l) [%] | Viability (active conc. 0.5 g/l) [log10CFU/ml] | Fatty acid utilisation (active conc. 0.5 g/l) [%] | Viability (active conc. 1.0 g/l) [log10CFU/ml] | Fatty acid utilisation (active conc. 1.0 g/l) [%] | Viability (active conc. 5.0 g/l) [log10CFU/ml] | Fatty acid utilisation (active conc. 5.0 g/l) [%] | Viability (active conc. 10.0 g/l) [log10CFU/ml] | Fatty acid utilisation (active conc. 10.0 g/l) [%] | Reduction of the fatty acid catabolism of corynebacteria A (at a concentration of 0.5 mg/ml or less) | Concentration producing sub-lethal inhibition (greater than 50% inhibition of pentadecanoic acid utilisation without reduction in cell viability, ≦1 log10 CFU/ml) (corynebacteria A) [mg/ml] |
| --- | --- | --- | --- | --- | --- | --- | --- | --- | --- | --- | --- | --- | --- | --- |
| OCc1ccc(O)cc1 [A, 4-hydroxybenzyl alcohol] | 8.69 | 100 | 8.85 | 97 | 8.17 | 21 | – | – | – | – | – | – | – | – |
| COc1ccc(CO)cc1O [B, 3-hydroxy-4-methoxybenzyl alcohol] | – | – | – | – | – | – | 8.90 | 99 | 8.99 | 86 | 8.62 | 29 | – | – |
| COc1cc(CCO)ccc1O [C, 4-hydroxy-3-methoxyphenethyl alcohol] | – | – | – | – | – | – | 8.80 | 99 | 8.60 | 59 | 8.09 | 26 | – | – |
| COc1cc(CO)ccc1O [Example 1, 4-hydroxy-3-methoxybenzyl alcohol] | 8.91 | 65 | 8.88 | 40 | 8.28 | 20 | – | – | – | – | – | – | greater than 50% | ≤ 0.25 |
